Values of other authors, collected in US20240197774A1, “Synthesis of Antimicrobial PVP-coated Bismuth Nanoparticles” (Board of Regents, The University of Texas System, priority 2021, published 2024).

Test system: humans
Conditions: intake for years, considered non-toxic

In the case of `[Bi]` [Bismuth], the Intake is listed as 5 to 20 g/day/kg.
